Experimental data published in PubChem BioAssay (NCI).
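In this assay, cells in 96-well plates receive the compound at five concentrations for 48 hours. Endpoints are linearly interpolated between the surrounding concentrations. Abbreviation: GI50, concentration required for 50% inhibition of growth. Definition used: TGI = concentration required for complete inhibition of growth.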

System: MDA-MB-468 breast
Assay: growth of human tumour cells (NCI), 48 h

Compound | GI50 | TGI
COc1cc(OC)c(/C=C/C(=O)c2c(O)cc(OC)c(C3CCN(C)CC3)c2OC)c(OC)c1 | 1.54 µM | 3.03 µM
COC1=CC(c2ccc[nH]2)=N/C1=C\c1[nH]c(C)c(C)c1CCC(=O)OCc1ccccc1 | 1.51 µM | 5.31 µM
N/C(=N\C(N)=N\c1nc2ccccc2s1)c1ccnc(Br)c1 | 17.5 µM | > 100 µM
Cc1ccnc(NC(c2ccccc2)c2ccc3cccnc3c2O)c1 (stereo not drawn) | 3.25 µM | 14.3 µM
O=C(Nc1ccc(Cl)cc1)c1cc2ccccc2cc1OP(=O)(O)O | 4.28 µM | 29.3 µM
CCN(CC)CC(O)c1cc(-c2ccc(Cl)cc2)nc2cc(Cl)ccc12 (stereo not drawn) | 1.92 µM | 3.53 µM
CNC(=O)c1cc(Oc2ccc3nc(NC(=O)Nc4cc(C(F)(F)F)cc(C(F)(F)F)c4)sc3c2)ccn1 | 0.399 µM | 1.75 µM
O=C1c2ccccc2-c2ccccc2C1(Cl)Cl | 1.74 µM | 3.3 µM
COc1ccc2c(c1)C(=O)c1c-2c(OCCN2CCCCC2)nc2ccc(OC)cc12 | 0.392 µM | 2.49 µM
CNC(=O)c1cc(Oc2cccc3nc(NC(=O)Nc4ccc(F)cc4F)ccc23)ccn1 | 1.83 µM | > 50 µM
O=[N+]([O-])c1cccc([I+]c2ccccc2)c1 | 2.1 µM | 17.4 µM
O=C(Nc1nc(-c2ccccc2Cl)cs1)c1cc(-c2ccc(Cl)cc2)nc2ccc(Cl)cc12 | 5.6 µM | 79.6 µM
COC1/C=C/OC2(C)Oc3c(C)c(O)c4c(O)c(c(C=NOC(c5ccccc5)c5ccccc5)c(O)c4c3C2=O)NC(=O)/C(C)=C/C=C/C(C)C(O)C(C)C(O)C(C)C(OC(C)=O)C1C (stereo not drawn) | 1.05 µM | 2.78 µM
Clc1ccc(Nc2ncnc3c2sc2ncccc23)c(Cl)c1 | 0.0548 µM | 73.8 µM
COc1ccc(Nc2ncccc2C(=O)NCc2cn(Cc3cccc(Oc4ccccc4)c3)nn2)c(OC)c1 | 0.77 µM | –
Cc1cc2nc3c4cc([N+](=O)[O-])ccc4n(CCN(C)C)c3nc2cc1C | 0.374 µM | 1.38 µM
COc1ccc(/C=C/C(=O)c2ccccc2)cc1OC | 5.25 µM | 18.6 µM
Oc1[nH]c2ccccc2c1/C=c1/ccc2c(c1)N=C(c1cc(F)cc(F)c1)N=2 | 2.62 µM | 8.64 µM
CS(=O)(=O)c1ccc(-c2cnc(NCc3ccco3)n3cnnc23)cc1 | 27 µM | > 100 µM
CCOC(=O)Nc1cc(-c2ccc(C)c(NS(C)(=O)=O)c2)nn2c(C)nnc12 | 0.557 µM | 4.21 µM
CC/C(=C(/CC)c1ccc(O)cc1)c1ccc(O)cc1 | 2.71 µM | 15.1 µM
Cc1nc2cc(Nc3nc(Nc4ccc(F)cc4)nc(N4CCCC4)n3)ccc2n1Cc1ccccc1 | 1.61 µM | 3.48 µM
